Counter-ions that a name gives are not always drawn.
Legend:
[1] = target: T1, nucleoside transport protein (Homo sapiens, UniProt Q99808); assay: inhibition of the nucleoside transport protein ([3H]NBl displacement, erythrocyte membrane); assay type: binding; conditions: 1.5 nM [3H]NBl; for Ki: 30 minutes at 25° C.; for % Displacement at 10 μM: 10 μM compound
T1 construct: 100 μl of an aqueous suspension of erythrocyte membrane; from tissue; host or cells: erythrocyte membrane
T1 sequence (Q99808 1-456): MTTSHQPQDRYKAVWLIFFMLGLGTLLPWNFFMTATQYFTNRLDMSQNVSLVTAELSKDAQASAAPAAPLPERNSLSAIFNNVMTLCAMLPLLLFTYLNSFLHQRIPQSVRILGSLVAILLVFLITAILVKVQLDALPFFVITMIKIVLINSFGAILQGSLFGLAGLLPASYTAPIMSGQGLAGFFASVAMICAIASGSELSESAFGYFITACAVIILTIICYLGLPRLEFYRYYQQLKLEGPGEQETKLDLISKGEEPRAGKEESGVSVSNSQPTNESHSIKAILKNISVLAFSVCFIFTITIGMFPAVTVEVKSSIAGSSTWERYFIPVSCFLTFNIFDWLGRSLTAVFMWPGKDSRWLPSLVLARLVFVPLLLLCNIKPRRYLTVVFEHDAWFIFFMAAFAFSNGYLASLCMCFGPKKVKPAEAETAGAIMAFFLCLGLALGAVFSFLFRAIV
Experimental: The following test conditions were chosen for the determination of the inhibition of the nucleoside transport protein:
100 μl of the substance solution in aqueous solution with DMSO as solution aid were incubated for 30 minutes at 25° C. with 100 μl of 1.5 nM [^3H]NBl ([…]), 100 μl of buffer (50 mM Tris.HCl, pH 7.4) and 100 μl of an aqueous suspension of erythrocyte membrane. After the incubation the test mixture was filtered off (Whatman GF/C Filter, post-washed with 50 mM Tris.HCl). The filters were transferred to test tubes, 3.5 ml of scintillation fluid were added, and after 2 hours the radioactivity was measured in a β-counter.

[2] = test system: (+)-MK801 binding site of the ionotropic NMDA receptor; assay: (3H)-(+)-MK801 receptor binding test on rat brain membrane homogenate; conditions: 10 μmole/l compound, 1 nmole/l (3H)-(+)-MK801, mean values of double determinations
Experimental: The investigations to determine the NMDA antagonistic action of the compounds according to the invention were carried out on brain membrane homogenates (rat brain homogenate minus cerebellum, pons and medulla oblongata from male Wistar strain rats (Charles River, Sulzfeld, Germany)).
For this, freshly prepared rat brains were digested, after removal of the cerebellum, pons and medulla oblongata, in 50 mmole/l Tris/HCl (pH 7.7) in a Polytron homogeniser (model PT3000, Kinematika AG, Littau, Switzerland) at 6,000 revs. per minute (rpm) for 1 minute while cooling in ice and then centrifuged for 15 minutes at 4° C. and 60,000 g. The supernatant was decanted and discarded, and the membrane pellet was taken up again in 50 mmole/l of Tris/HCl (pH 7.7) and digested in a homogeniser at 2,000 rpm for 1 minute and recentrifuged for 15 minutes at 4° C. and 60,000 g. The supernatant was discarded again and the membrane pellet was homogenised in 50 mmole/l Tris/HCl (pH 7.7) (2,000 rpm for 1 minute) and aliquot portions were frozen at −70° C.
For the receptor binding test aliquots were in each case thawed out and then centrifuged for 15 minutes at 4° C. and 60,000 g. After decanting and discarding the supernatant, the membrane pellet for the binding test was taken up in binding test buffer and homogenised (2,000 rpm for 1 minute). 5 mmole/l Tris/HCl (pH 7.7) supplemented with 30 μmole/l of glycine and 100 μmole/l of glutamic acid was used as binding test buffer.
1 nmole/l of (^3H)-(+)-MK801 ((5R, 10S)-(+)-5-methyl-10,11-dihydro-5H-dibenzo(a,d)cyclohepten-5,10-imine (NET-972, NEN, Cologne, Germany) was added as radioactively labelled ligand. The proportion of non-specific binding was determined in the presence of 10 μmole/l of non-radioactively labelled (+)-MK801 (RBI/Sigma, Deisenhofen, Germany). In further assays the respective compounds according to the invention were added in concentration series and the displacement of the radioactive ligand from its specific binding to the NMDA receptor was measured.
The batches were incubated in each case for 40 minutes at 25° C. and then harvested by filtration to determine the radioactive ligand bound to the brain membrane homogenate. The radioactivity retained by the filter was measured after adding a scintillator (“Ready Protein” scintillator, Beckmann Coulter GmbH, Krefeld, Germany) in a β-counter (Packard TR^1-CARB Liquid Scintillation Analyser 2000CA, Packard Instrument, Meriden, Conn. 06450, USA).
The resulting percentage inhibition of the specific binding of the ligand (^3H)-(+)-MK801 in the presence of in each case 10 μmole/l of the respective compound according to the invention serves as a measure of the affinity of this compound for the (+)-MK801 binding site of the ionotropic NMDA receptor. The affinities are given in Table 2 as mean values of double determinations on selected examples.

[3] = target: T2, recombinant human adenosine A3 receptor (Homo sapiens, UniProt P0DMS8); assay: adenosine A3 receptor displacement assay with [125I]AB-MECA; assay type: binding; conditions: compound concentration 3 μM; ligand 0.1 nM [125I]AB-MECA
T2 construct: expressed in transfected cells
T2 sequence (P0DMS8 1-318): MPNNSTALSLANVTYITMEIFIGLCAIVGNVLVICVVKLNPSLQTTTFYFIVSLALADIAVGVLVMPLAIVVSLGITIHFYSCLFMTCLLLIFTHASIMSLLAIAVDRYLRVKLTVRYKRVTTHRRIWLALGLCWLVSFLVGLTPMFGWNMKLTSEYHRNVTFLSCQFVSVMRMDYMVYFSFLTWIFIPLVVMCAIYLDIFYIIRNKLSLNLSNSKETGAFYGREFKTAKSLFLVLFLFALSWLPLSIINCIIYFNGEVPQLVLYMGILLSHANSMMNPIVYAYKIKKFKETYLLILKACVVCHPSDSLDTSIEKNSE
Experimental: The dihydrochloride of Example 147 (prepared from Example 147 in a similar manner to Examples 145 and 152) was investigated as regards its affinity for the recombinant human adenosine A3 receptor in a displacement assay (C. A. Salvatore et al., Process. Natl. Acad. Sci. USA (1993), Vol. 90, 10365–10369). At a ligand concentration of 0.1 nM [^125I]AB-MECA (N^6-(4-amino-3-[^125I]iodobenzyladenosine) the displacement at a concentration of 3 μM was 93%.

Structure (SMILES) | Ki [1] [nM] | % Inhibition of the specific binding of the ligand (3H)-(+)-MK801 [2] [%] | further results
COc1ccc(C2CC(c3ccc([N+](=O)[O-])s3)Nc3c(C#N)c(SC)nn32)cc1OC (stereo not shown) [Example 55, 7-(3,4-dimethoxyphenyl)-2-methylsulfanyl-5-(5-nitrothiophen-2-yl)-tetrahydropyrazolo[1,5-a]pyrimidine-3-carbonitrile] | 400 |  | 
OC1=NN2C(=NC(c3ccccn3)CC2Sc2ccccc2)C1N=Nc1ccccc1 (stereo not shown) [Example 142, 3-phenylazo-7-phenylsulfanyl-5-pyridin-2-yl-3,5,6,7-tetrahydropyrazolo[1,5-a]pyrimidin-2-ol] |  | 75 | 
COc1ccc(C2CC(c3ccc([N+](=O)[O-])s3)Nc3c(N=Nc4ccccc4)c(O)nn32)cc1OC (stereo not shown) [Example 53, 7-(3,4-dimethoxyphenyl)-5-(5-nitrothiophen-2-yl)-3-phenylazotetrahydropyrazolo[1,5-a]pyrimidin-2-ol] | 600 |  | 
COc1ccc(C2CC(c3ccc([N+](=O)[O-])s3)Nc3c(C#N)cnn32)cc1OC (stereo not shown) [Example 56, 7-(3,4-dimethoxyphenyl)-5-(5-nitrothiophen-2-yl)-tetrahydropyrazolo[1,5-a]pyrimidine-3-carbonitrile] |  |  | % Displacement at 10 μM [1]: 43%
COc1ccc(C2CC(c3ccccn3)Nc3c(Br)c(-c4ccccc4)nn32)cc1OC (stereo not shown) [dihydrochloride of Example 147, 3-bromo-7-(3,4-dimethoxyphenyl)-2-phenyl-5-pyridin-2-yl-tetrahydropyrazolo[1,5-a]pyrimidine] |  |  | displacement [3]: 93%
COc1ccc(C2CC(c3ccccn3)Nc3c(Br)c(-c4ccccc4)nn32)cc1OC (stereo not shown) [Example 145, 3-bromo-7-(3,4-dimethoxyphenyl)-2-phenyl-5-pyridin-2-yl-4,5,6,7-tetrahydropyrazolo[1,5-a]pyrimidine dihydrochloride] | 400 |  | 
N#CC1C=NN2C1=NC(c1ccccn1)CC2Sc1ccccc1 (stereo not shown) [Example 144, 7-phenylsulfanyl-5-pyridin-2-yl-3,5,6,7-tetrahydropyrazolo[1,5-a]pyrimidine-3-carbonitrile] |  | 45 | 
COc1ccc(C2CC(c3ccc([N+](=O)[O-])s3)Nc3c(Br)c(-c4ccccc4)nn32)cc1OC (stereo not shown) [Example 54, 3-bromo-7-(3,4-dimethoxyphenyl)-5-(5-nitrothiophen-2-yl)-2-phenyltetrahydropyrazolo[1,5-a]pyrimidine] | 1300 |  | 
OC1=NN2C(=NC(c3ccccn3)CC2c2ccccc2)C1N=Nc1ccccc1 (stereo not shown) [Example 140, 7-phenyl-3-phenylazo-5-pyridin-2-yl-3,5,6,7-tetrahydropyrazolo[1,5-a]pyrimidin-2-ol] |  | 44 | 
CCOC(=O)c1cnn2c1NC(c1ccccn1)CC2c1ccc(OC)c(OC)c1 (stereo not shown) [Example 154, 7-(3,4-dimethoxyphenyl)-5-pyridin-2-yl-4,5,6,7-tetrahydropyrazolo[1,5-a]pyrimidine-3-carboxylic acid ethyl ester] |  |  | % Displacement at 10 μM [1]: 41%
COc1ccc(C2CC(c3ccc([N+](=O)[O-])o3)Nc3c(Br)c(-c4ccccc4)nn32)cc1OC (stereo not shown) [Example 39, 3-bromo-7-(3,4-dimethoxyphenyl)-5-(5-nitrofuran-2-yl)-2-phenyl-tetrahydropyrazolo[1,5-a]pyrimidine] |  |  | % Displacement at 10 μM [1]: 40%
BrC1C=NN2C1=NC(c1ccccn1)CC2Sc1ccccc1 (stereo not shown) [Example 143, 3-bromo-7-phenylsulfanyl-5-pyridin-2-yl-3,5,6,7-tetrahydropyrazolo[1,5-a]pyrimidine] |  | 49 | 
COc1ccc(C2CC(CCc3ccccc3)Nc3c(C#N)c(SC)nn32)cc1OC (stereo not shown) [Example 111, 7-(3,4-dimethoxyphenyl)-2-methylsulfanyl-5-phenethyl-tetrahydropyrazolo[1,5-a]pyrimidine-3-carbonitrile] | 300 |  | 
COc1ccc(C2CC(C(=O)c3ccccc3)Nc3c(C#N)c(SC)nn32)cc1OC (stereo not shown) [Example 64, 5-benzoyl-7-(3,4-dimethoxyphenyl)-2-methylsulfanyltetrahydropyrazolo[1,5-a]pyrimidine-3-carbonitrile] | 600 |  | 
COc1ccc(C2CC(c3ccc([N+](=O)[O-])o3)Nc3c(C#N)c(SC)nn32)cc1OC (stereo not shown) [Example 153, 7-(3,4-dimethoxyphenyl)-2-methylsulfanyl-5-(5-nitrofuran-2-yl) tetrahydropyrazolo[1,5-a]pyrimidine-3-carbonitrile] |  |  | % Displacement at 10 μM [1]: 50%
CCOC(=O)C1C=NN2C1=NC(c1ccccn1)CC2Sc1ccccc1 (stereo not shown) [Example 141, 7-phenylsulfanyl-5-pyridin-2-yl-3,5,6,7-tetrahydropyrazolo[1,5-a]pyrimidine-3-carboxylic acid ethyl ester] |  | 45 | 
